In patent publication US4265808A, “Pharmacologically active peptides” (Eli Lilly and Company, priority 1979, dated 1981):
Counter-ions that a name gives are not always drawn. Where a SMILES comes first, the peptide text is derived from it. [ ]: non-standard residue; d: D form. NEtPhe(4-F) = CCN[C@@H](Cc1ccc(F)cc1)C(=O)O

Test system: mouse
Assay: mouse hot plate test (analgesic activity)
Type: in vivo
Conditions: hot plate 52° C., 15 minutes after administration, latency to jump; for Analgesic Activity, Hot Plate Test ED50, mg./kg. subcutaneous: subcutaneous injection
Experimental: In this test, a mouse is placed inside an upright acrylic cylinder comprising, as its base, a hot plate surface which is maintained at 52° C. The mouse is given, orally or by subcutaneous injection, a predetermined amount of test compound dissolved or suspended in a suitable carrier, and, 15 minutes after administration of the test compound, the mouse is placed on the hot plate surface. The latency in seconds until the mouse jumps from the hot plate surface is measure. […] This must occur in a dose range which produces no motor incoordination or incapacitation. The following Table records the ED50 results obtained from this test.

| Compound | Analgesic Activity, Hot Plate Test ED50, mg./kg. oral | Analgesic Activity, Hot Plate Test ED50, mg./kg. subcutaneous |
| --- | --- | --- |
| CCN(C(=O)CNC(=O)[C@@H](C)NC(=O)[C@@H](N)Cc1ccc(O)cc1)[C@@H](Cc1ccc(F)cc1)C(N)=O [Example 1, L-Tyrosyl-D-alanyl-glycyl-L-(N-ethyl)-p-fluorophenylalanine Amide, Acetate Salt] | 19 mg/kg | 0.00018 mg/kg |
| CCN(C(=O)CNC(=O)[C@H](NC(=O)[C@@H](N)Cc1ccc(O)cc1)[C@H](C)O)[C@@H](Cc1ccc(F)cc1)C(N)=O [Example 2, L-Tyrosyl-D-threonyl-glycyl-L-(N^α -ethyl)-p-fluorophenylalanine Amide, Acetate Salt] (H-Y[dT]G[NEtPhe(4-F)]-NH2) |  | 0.0121 mg/kg |
| CCN(C(=O)CNC(=O)[C@@H](C)NC(=O)[C@H](Cc1ccc(O)cc1)NC)[C@@H](Cc1ccc(F)cc1)C(N)=O [Example 3, L-N^α -Methyl-tyrosyl-D-alanyl-glycyl-L-(N^α -Ethyl)-p-fluorophenylalanine Amide, Acetate Salt] | 3.55 mg/kg | 0.0117 mg/kg |
